Source: patent publication US9573911B2, “Diphosphate mimetics and uses thereof” (President and Fellows of Harvard College, priority 2011, dated 2017)

Tests used:
Assay in all cases: Kinase profiling, Invitrogen Z'-LYTE
Type in all cases: biochemical
Settings in all cases: Table 2
[1] = target: T1, CDK5/p25 (Homo sapiens, UniProt Q00535)
T1 construct: purchased Invitrogen
Protocol: (§1) Kinase profiling was conducted using Invitrogen Z'-LYTE screening protocol and assay conditions found at www.invitrogen.com. Compound (2) inhibited PLK1 completely at 5 μM.

[2] = target: T2, HIPK2 (Homo sapiens, UniProt Q9H2X6)
T2 construct: purchased Invitrogen
Protocol: as §1

[3] = target: T3, ABL1 (Homo sapiens, UniProt P00519)
T3 construct: purchased Invitrogen
Protocol: as §1

[4] = target: T4, MET M1250T (Homo sapiens, UniProt P08581, M1250T)
T4 construct: purchased Invitrogen
Protocol: as §1

[5] = target: T5, EPHA1 (Homo sapiens, UniProt P21709)
T5 construct: purchased Invitrogen
T5 sequence (P21709 26-976): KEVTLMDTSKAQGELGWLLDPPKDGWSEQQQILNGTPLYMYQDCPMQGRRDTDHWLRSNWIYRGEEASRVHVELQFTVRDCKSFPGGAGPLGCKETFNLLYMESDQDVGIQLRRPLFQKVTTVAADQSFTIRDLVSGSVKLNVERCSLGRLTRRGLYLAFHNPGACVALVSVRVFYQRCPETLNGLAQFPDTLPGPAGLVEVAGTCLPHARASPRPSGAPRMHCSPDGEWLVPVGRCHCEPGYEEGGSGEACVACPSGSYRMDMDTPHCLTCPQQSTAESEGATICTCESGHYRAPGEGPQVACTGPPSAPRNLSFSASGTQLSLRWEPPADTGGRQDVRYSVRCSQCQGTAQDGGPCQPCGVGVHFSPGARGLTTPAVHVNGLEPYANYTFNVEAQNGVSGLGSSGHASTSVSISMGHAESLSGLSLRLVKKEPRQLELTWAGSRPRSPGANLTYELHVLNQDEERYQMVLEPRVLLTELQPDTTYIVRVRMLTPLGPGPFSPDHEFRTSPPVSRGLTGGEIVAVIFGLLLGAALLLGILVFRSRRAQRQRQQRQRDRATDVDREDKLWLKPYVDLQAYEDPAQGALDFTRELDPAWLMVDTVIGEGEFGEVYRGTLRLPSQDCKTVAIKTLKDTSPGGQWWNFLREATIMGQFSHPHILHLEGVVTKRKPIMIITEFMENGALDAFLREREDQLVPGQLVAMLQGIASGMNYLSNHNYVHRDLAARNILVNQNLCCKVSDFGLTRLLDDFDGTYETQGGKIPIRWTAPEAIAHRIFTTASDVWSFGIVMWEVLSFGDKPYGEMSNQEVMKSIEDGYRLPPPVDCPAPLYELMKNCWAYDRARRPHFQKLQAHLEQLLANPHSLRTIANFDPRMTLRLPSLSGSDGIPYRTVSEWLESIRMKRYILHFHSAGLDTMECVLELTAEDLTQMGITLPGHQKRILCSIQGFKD
Protocol: as §1

[6] = target: T6, IKBKE (IKK epsilon) (Homo sapiens, UniProt Q14164)
T6 construct: purchased Invitrogen
T6 sequence (Q14164 1-716): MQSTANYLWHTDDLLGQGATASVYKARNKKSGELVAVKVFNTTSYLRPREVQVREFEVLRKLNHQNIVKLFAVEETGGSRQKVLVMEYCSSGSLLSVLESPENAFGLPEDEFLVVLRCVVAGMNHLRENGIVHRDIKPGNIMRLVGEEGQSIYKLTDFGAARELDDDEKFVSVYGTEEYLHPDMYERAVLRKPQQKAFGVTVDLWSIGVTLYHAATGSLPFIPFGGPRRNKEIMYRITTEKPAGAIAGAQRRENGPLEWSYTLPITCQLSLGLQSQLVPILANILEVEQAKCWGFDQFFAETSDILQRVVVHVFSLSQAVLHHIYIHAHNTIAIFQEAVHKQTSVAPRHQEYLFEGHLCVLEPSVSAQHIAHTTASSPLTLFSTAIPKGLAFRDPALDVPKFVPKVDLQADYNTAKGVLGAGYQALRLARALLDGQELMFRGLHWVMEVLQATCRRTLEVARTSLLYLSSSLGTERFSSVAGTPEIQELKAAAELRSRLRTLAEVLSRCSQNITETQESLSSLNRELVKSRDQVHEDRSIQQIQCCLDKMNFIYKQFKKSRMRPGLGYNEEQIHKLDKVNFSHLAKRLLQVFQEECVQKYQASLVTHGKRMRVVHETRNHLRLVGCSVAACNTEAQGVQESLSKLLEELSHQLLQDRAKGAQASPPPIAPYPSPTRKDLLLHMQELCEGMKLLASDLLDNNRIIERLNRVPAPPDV
Protocol: as §1

[7] = target: T7, MAPKAPK5 (PRAK) (Homo sapiens, UniProt Q8IW41)
T7 construct: purchased Invitrogen
T7 sequence (Q8IW41 1-473): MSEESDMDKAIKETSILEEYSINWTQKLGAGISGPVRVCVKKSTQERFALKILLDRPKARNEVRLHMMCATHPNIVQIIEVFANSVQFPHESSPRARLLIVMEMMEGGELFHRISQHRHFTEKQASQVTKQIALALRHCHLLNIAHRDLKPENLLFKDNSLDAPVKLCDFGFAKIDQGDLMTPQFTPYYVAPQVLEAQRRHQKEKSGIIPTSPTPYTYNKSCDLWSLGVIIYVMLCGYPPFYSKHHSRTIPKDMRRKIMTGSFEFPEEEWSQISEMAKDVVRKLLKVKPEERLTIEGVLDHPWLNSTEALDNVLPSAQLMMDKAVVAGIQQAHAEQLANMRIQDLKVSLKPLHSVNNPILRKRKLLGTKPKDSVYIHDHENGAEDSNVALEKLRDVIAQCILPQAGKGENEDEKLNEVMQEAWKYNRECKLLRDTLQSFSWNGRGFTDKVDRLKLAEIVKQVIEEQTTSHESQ
Protocol: as §1

T3 sequence (P00519 whole entry): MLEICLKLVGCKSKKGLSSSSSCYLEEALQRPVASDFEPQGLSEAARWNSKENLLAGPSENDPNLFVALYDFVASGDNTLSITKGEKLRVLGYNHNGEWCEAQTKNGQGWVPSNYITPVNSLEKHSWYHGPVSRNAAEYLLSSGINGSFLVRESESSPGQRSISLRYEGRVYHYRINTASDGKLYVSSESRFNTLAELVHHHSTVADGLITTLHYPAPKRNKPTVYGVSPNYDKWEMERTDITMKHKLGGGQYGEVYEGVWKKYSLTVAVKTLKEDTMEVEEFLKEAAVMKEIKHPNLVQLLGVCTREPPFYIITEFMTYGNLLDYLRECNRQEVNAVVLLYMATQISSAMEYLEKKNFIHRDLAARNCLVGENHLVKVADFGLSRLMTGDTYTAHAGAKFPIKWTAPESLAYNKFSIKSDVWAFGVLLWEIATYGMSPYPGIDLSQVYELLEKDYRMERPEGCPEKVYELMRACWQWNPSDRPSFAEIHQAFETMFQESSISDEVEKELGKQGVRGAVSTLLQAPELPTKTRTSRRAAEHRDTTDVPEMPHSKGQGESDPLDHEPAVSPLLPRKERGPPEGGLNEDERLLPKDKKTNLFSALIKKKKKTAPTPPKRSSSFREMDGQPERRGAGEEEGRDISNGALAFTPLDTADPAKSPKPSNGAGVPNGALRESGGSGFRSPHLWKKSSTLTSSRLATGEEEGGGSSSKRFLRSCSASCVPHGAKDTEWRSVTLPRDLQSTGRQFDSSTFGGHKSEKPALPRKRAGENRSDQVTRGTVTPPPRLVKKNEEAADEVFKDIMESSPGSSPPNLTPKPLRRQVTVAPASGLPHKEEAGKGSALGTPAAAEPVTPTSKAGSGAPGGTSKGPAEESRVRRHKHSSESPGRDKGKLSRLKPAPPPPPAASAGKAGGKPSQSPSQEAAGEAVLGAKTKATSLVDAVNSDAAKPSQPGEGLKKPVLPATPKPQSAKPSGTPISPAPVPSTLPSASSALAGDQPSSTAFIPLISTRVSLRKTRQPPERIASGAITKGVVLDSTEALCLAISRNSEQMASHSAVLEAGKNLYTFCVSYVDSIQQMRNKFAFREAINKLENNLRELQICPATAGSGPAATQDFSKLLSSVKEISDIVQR
T2 sequence (Q9H2X6 whole entry): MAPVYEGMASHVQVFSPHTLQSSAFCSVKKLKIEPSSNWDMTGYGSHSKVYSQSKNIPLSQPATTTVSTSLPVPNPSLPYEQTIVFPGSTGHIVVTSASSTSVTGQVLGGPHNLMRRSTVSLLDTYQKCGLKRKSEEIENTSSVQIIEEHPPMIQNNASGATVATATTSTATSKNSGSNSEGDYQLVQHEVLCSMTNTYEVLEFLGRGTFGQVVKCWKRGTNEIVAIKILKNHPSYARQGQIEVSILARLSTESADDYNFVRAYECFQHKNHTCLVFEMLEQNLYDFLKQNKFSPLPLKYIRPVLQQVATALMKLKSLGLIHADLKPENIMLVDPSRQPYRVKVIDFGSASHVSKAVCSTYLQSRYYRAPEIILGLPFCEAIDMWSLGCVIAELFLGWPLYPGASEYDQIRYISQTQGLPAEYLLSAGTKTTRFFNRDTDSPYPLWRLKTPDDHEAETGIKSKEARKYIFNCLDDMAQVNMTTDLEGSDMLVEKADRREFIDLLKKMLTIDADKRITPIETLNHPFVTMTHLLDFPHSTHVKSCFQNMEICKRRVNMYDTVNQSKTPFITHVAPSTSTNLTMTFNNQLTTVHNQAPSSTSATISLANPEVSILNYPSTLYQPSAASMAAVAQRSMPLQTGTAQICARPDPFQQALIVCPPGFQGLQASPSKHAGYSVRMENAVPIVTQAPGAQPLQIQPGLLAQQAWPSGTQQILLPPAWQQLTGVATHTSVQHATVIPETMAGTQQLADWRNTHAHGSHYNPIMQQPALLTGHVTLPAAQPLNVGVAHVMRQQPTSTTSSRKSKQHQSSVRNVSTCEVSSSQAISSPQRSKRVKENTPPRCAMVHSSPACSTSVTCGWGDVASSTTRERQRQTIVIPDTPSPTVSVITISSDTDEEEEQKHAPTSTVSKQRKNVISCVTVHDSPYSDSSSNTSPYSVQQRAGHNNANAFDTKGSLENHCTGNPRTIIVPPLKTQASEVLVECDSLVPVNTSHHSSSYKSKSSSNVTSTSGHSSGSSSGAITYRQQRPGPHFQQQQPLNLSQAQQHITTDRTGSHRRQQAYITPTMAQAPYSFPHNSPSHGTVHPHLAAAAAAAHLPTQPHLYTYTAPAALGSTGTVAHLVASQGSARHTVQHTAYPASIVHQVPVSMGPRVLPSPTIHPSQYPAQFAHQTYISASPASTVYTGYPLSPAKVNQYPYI
T4 sequence (P08581 25-1390 M1250T): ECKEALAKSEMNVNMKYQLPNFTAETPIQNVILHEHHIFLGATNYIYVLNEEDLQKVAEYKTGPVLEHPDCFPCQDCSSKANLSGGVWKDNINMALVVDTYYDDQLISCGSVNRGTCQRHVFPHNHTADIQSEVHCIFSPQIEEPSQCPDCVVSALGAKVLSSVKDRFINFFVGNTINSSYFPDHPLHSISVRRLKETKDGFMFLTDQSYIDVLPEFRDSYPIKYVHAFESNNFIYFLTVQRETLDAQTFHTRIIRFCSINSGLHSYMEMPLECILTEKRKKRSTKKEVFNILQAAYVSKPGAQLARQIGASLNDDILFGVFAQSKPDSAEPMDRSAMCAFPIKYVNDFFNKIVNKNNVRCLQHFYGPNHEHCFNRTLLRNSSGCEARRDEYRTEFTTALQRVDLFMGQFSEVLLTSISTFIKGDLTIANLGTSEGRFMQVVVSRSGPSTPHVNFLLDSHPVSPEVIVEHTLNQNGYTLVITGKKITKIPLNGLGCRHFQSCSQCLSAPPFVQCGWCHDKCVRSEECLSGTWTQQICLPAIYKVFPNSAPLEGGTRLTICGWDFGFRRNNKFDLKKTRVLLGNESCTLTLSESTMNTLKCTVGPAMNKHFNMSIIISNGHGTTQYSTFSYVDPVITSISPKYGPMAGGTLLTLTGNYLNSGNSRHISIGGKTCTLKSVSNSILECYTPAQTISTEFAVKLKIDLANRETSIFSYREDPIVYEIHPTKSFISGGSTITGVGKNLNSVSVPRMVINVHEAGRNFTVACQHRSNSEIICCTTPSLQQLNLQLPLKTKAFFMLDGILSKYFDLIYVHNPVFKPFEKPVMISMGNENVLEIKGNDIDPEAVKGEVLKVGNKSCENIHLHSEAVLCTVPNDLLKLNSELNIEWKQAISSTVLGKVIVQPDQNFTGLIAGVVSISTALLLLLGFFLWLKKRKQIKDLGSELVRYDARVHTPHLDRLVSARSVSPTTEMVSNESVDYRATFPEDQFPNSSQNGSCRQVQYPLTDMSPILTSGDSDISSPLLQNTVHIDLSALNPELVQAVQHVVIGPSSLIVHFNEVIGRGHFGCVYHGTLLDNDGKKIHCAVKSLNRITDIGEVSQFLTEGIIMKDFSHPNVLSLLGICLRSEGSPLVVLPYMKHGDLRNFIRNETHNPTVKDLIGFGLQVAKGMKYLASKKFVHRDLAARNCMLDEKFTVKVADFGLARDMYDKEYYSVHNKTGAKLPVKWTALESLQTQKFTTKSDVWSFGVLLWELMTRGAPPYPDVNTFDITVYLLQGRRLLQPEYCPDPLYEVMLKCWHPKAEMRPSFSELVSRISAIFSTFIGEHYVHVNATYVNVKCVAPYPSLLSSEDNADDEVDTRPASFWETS
T1 sequence (Q00535 whole entry): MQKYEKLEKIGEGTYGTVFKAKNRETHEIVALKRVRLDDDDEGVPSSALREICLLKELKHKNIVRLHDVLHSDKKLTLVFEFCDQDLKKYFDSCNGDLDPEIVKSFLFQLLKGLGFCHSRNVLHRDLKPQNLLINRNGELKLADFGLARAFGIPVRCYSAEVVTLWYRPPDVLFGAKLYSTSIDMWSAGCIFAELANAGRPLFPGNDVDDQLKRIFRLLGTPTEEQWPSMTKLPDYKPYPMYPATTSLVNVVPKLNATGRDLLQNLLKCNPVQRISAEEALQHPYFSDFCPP
T1 sequence (Q15078 99-307 partner limits assumed): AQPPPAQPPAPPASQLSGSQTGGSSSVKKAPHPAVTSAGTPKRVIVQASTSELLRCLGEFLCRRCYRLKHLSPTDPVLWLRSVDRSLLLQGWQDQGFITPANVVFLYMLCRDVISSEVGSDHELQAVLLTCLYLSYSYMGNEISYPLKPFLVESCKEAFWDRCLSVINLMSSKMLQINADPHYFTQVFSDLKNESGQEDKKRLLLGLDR

COc1ccc(OC(=O)n2c(=O)oc3cc(C(C)=O)ccc32)cc1 [Compound 2]
% Inhibition Point 1 [1]: −322% | % Inhibition Point 2 [1]: −286% | % Inhibition mean [1]: −304% | % Inhibition Point 1 [2]: −96% | % Inhibition Point 2 [2]: −90% | % Inhibition mean [2]: −93% | % Inhibition Point 1 [3]: −147% | % Inhibition Point 2 [3]: −234% | % Inhibition mean [3]: −190% | % Inhibition Point 1 [4]: −113% | % Inhibition Point 2 [4]: −143% | % Inhibition mean [4]: −128% | % Inhibition Point 1 [5]: −62% | % Inhibition Point 2 [5]: −107% | % Inhibition mean [5]: −85% | % Inhibition Point 1 [6]: 3% | % Inhibition Point 2 [6]: 4% | % Inhibition mean [6]: 3% | % Inhibition Point 1 [7]: −146% | % Inhibition Point 2 [7]: −147% | % Inhibition mean [7]: −146%
